# From patent US20230295162A1 (EÖTVÖS LORÁND TUDOMÁNYEGYETEM, priority 2020, published 2023)
# What was measured:
# [1] = system: LNCaP (prostate, carcinoma) cells; assay: Cell viability assay, CellTiter-Glo (Example 21); assay type: cell-based, human; details: 72 h
# In short: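 LNCaP prostate carcinoma cell viability was assessed with the CellTiter-Glo® luminescent assay (Promega), following the manufacturer's instructions. Cells were seeded at 1500 cells/well into flat-bottomed white 96 well plates, treated, and then luminescence was read on a BioTek Synergy 2 Multi-Mode Reader. Dose-response curves were fitted in GraphPad Prism 8.4.2 by four-parameter variable-slope non-linear regression.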
# [2] = system: MIA PaCa-2 (pancreas, carcinoma) cells; assay: Cell viability assay, CellTiter-Glo (Example 21); assay type: cell-based, human; details: 72 h treatment
# In short: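 MIA PaCa-2 pancreatic carcinoma cells were seeded at 1000 cells/well in flat-bottomed white 96 well plates (BRANDplates®, cat. no.: 781965) and treated with compound. Viability was then determined with the CellTiter-Glo® luminescent cell viability assay (Promega) following the manufacturer's instructions, with luminescence read on a BioTek Synergy 2 Multi-Mode Reader.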
# [3] = system: EBC-1 (lung, squamous cell carcinoma) cells; assay: Cell viability assay, CellTiter-Glo (Example 21); assay type: cell-based, human; details: 72 h treatment
# In short: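 EBC-1 lung squamous cell carcinoma cells were seeded at 1000 cells/well in flat-bottomed white 96 well plates. After compound treatment, viability was measured with the CellTiter-Glo luminescent assay following the manufacturer's instructions, and luminescence was read on a BioTek Synergy 2 Multi-Mode microplate reader.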
# [4] = system: PC-3 (prostate, adenocarcinoma) cells; assay: Cell viability assay, CellTiter-Glo (Example 21); assay type: cell-based, human; details: 72 h treatment
# In short: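 PC-3 prostate adenocarcinoma cells were seeded at 1000 cells/well in flat-bottomed white 96 well plates and treated with compounds. Viability was then determined with the CellTiter-Glo® luminescent assay (Promega) following the manufacturer's instructions, with luminescence read on a BioTek Synergy 2 Multi-Mode Reader.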
# [5] = system: Detroit 562 (pharynx, carcinoma) cells; assay: Cell viability assay, CellTiter-Glo (Example 21); assay type: cell-based, human; details: 72 h treatment
# In short: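 Seeding density per line: Panc-1 750, FaDu 1000, Detroit 562 and MDA-MB-453 1500 cells/well. Viability after treatment read by CellTiter-Glo luminescence; dose-response curves fitted by four-parameter variable-slope non-linear regression.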
# [6] = system: H520 lung carcinoma cell line; assay: CellTiter-Glo IC50 (Example 19); assay type: cell-based; details: Homo sapiens, NCI-H520, 72 h
# In short: (§1)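 Viability relative to untreated wells was calculated from luminescence, and curves fitted (log inhibitor vs response, variable slope) yielded IC50. Plating density was 1000 cells/well, incubation at 37° C, 5% CO2.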
# [7] = system: BxPC3 pancreatic cancer cell line; assay: CellTiter-Glo IC50 (Example 19); assay type: cell-based; details: Homo sapiens, BXPC-3, 72 h
# In short: as §1
# [8] = system: LNCap human prostate cancer cell line; assay: CellTiter-Glo IC50 (Example 19); assay type: cell-based; details: 72 h
# In short: as §1
# [9] = system: A549 lung carcinoma cell line; assay: CellTiter-Glo IC50 (Example 19); assay type: cell-based; details: Homo sapiens, 72 h
# In short: as §1
# [10] = system: PC3 human prostate cancer cell line; assay: CellTiter-Glo IC50 (Example 19); assay type: cell-based; details: 72 h
# In short: as §1
# [11] = system: H1993 lung carcinoma cell line; assay: CellTiter-Glo IC50 (Example 19); assay type: cell-based; details: Homo sapiens, NCI-H1993, 72 h
# In short: as §1
# [12] = system: HCC827 lung carcinoma cell line; assay: CellTiter-Glo IC50 (Example 19); assay type: cell-based; details: Homo sapiens, 72 h
# In short: as §1
# [13] = system: MiaPaCa2 pancreatic cancer cell line; assay: CellTiter-Glo IC50 (Example 19); assay type: cell-based; details: Homo sapiens, MIA PaCa-2, 72 h
# In short: as §1
# [14] = system: representative cell lines; assay: Cytotoxicity on representative cell lines (summary statement); assay type: cell-based; details: Homo sapiens; summary range, ca.
# [15] = system: MDA-MB-453 breast cancer cell line; assay: CellTiter-Glo IC50 (Table 3); assay type: cell-based; details: Homo sapiens
# In short: as §1
# [16] = system: MDA-MB-231 breast cancer cell line; assay: CellTiter-Glo IC50 (Table 3); assay type: cell-based; details: Homo sapiens
# In short: as §1
# [17] = system: PANC-1 (human pancreatic carcinoma) cells; assay: Impedance-based viability assay (xCELLigence SP), long treatment; assay type: cell-based; details: 72 h, read-out: cytotoxicity expressed in IC50, PANC-1
# Source text: (Gibco®/Invitrogen Corporation, New York, NY, USA).
# Data obtained from each experiment represent mathematical averages.
compound,measurement,setting,value
"O=C1C2=C(CCN(Cc3cc(F)cc(F)c3)C2)N2CCN=C2N1Cc1ccc(C(F)(F)F)cc1 [I/30, 7-(3,5-Difluorobenzyl)-4-(4-(trifluoromethyl)benzyl)-2,4,6,7,8,9-hexahydroimidazo[1,2-a]pyrido[3,4-e]pyrimidin-5(1H)-one]",LNCaP cell viability,[1]; 3.7 nM,29.6 ± 2.5 % of control
same,LNCaP cell viability,[1]; 11.1 nM,15.0 ± 0.4 % of control
same,LNCaP cell viability,[1]; 100 nM,11.4 ± 0.6 % of control
same,LNCaP cell viability,[1]; 300 nM,11.3 ± 1.1 % of control
same,"MIA PaCa-2 (pancreas, carcinoma) cell viability (% of control)",[2]; 3.7 nM,65.7 ± 12.6 % of control
same,"MIA PaCa-2 (pancreas, carcinoma) cell viability (% of control)",[2]; 11.1 nM,19.1 ± 8.0 % of control
same,"MIA PaCa-2 (pancreas, carcinoma) cell viability (% of control)",[2]; 100 nM,16.7 ± 6.7 % of control
same,"MIA PaCa-2 (pancreas, carcinoma) cell viability (% of control)",[2]; 300 nM,17.6 ± 7.6 % of control
same,"EBC-1 (lung, squamous cell carcinoma) cell viability (% of control)",[3]; 3.7 nM,76.4 ± 2.2 % of control
same,"EBC-1 (lung, squamous cell carcinoma) cell viability (% of control)",[3]; 11.1 nM,24.8 ± 1.1 % of control
same,"EBC-1 (lung, squamous cell carcinoma) cell viability (% of control)",[3]; 100 nM,21.3 ± 0.6 % of control
same,"EBC-1 (lung, squamous cell carcinoma) cell viability (% of control)",[3]; 300 nM,20.1 ± 0.0 % of control
same,"PC-3 (prostate, adenocarcinoma) cell viability (% of control)",[4]; 3.7 nM,78.9 ± 4.6 % of control
same,"PC-3 (prostate, adenocarcinoma) cell viability (% of control)",[4]; 11.1 nM,36.6 ± 1.8 % of control
same,"PC-3 (prostate, adenocarcinoma) cell viability (% of control)",[4]; 100 nM,32.1 ± 3.6 % of control
same,"PC-3 (prostate, adenocarcinoma) cell viability (% of control)",[4]; 300 nM,31.3 ± 2.5 % of control
same,"Detroit 562 (pharynx, carcinoma) cell viability (% of control)",[5]; 3.7 nM,31.9 ± 6.7 % of control
same,"Detroit 562 (pharynx, carcinoma) cell viability (% of control)",[5]; 11.1 nM,27.0 ± 5.5 % of control
same,"Detroit 562 (pharynx, carcinoma) cell viability (% of control)",[5]; 100 nM,24.7 ± 2.9 % of control
same,"Detroit 562 (pharynx, carcinoma) cell viability (% of control)",[5]; 300 nM,28.7 ± 2.5 % of control
same,melting point,,168 °C
same,IC50,[6],3 nM
same,IC50,[7],4 nM
same,IC50,[8],2 nM
same,IC50,[9],4 nM
same,IC50,[10],2 nM
same,IC50,[11],4 nM
same,IC50,[12],5 nM
same,IC50,[13],3 nM
same,IC50,[14],3 to 8 nM
same,IC50,[15],< 1 nM
same,IC50,[16],< 1 nM
same,IC50,[17],4 nM
